Data as given in PMC8909834, “An Orally Bioavailable and Highly Efficacious Inhibitor of CDK9/FLT3 for the Treatment of Acute Myeloid Leukemia” (Cancers, 2022).

Columns and labels:
MV4-11 tumor xenografts = test: In vivo xenograft study; settings: for MST (median survival time): vehicle MST = 38 days; for mice with unmeasurable tumor size (zero tumor volume): day 29, n = 7
Method: In vivo xenograft study. The in vivo efficacy of CDDD11-8 on tumors developed in mice from AML cells was evaluated by engrafting 5 × 10^6 MV4-11 cells suspended in a 1:1 mixture of Matrigel^TM (Becton Dickinson, Corning, NY, USA) and serum-free medium (100 µL) subcutaneously into the right flank of female BALB/c nude (nu/nu) mice (6–7 weeks). When the tumor reached a volume of 100–200 mm^3, mice were randomized into 3 groups (n = 7). Mice in G1 received vehicle (acetate buffer at pH 4.74), while mice in G2 and G3 received CDDD11-8, at 75 and 125 mg/kg, respectively. Both CDDD11-8 and vehicle were administered orally, once a day for 28 days. Clinical signs of toxicity were observed daily; body weights were measured daily during the dosing period and every other day thereafter. Tumor dimensions, i.e., length (L) and width (W), were measured every other day using Vernier calipers. The tumor volume was calculated using the formula 0.52 × L × W^2, where L and W are perpendicularly measured diameters and L ≥ W. Mice were humanely killed by CO2 asphyxiation when the tumor volume reached 1500 mm^3 or the percent loss of body weight exceeded 15%, or the study was completed.
Data were analyzed statistically using GraphPad Prism version 7. Descriptive statistics (frequency, mean, percentage) were used to report tumor volume, body weights, daily change in body weights from day 1 of dosing, and the ratio of tumor volume between treatment and control groups (T/C). Statistical differences in tumor volume between treated and control groups were analyzed using two-way ANOVA, where days on which the tumor volume was measured and treatments were the two independent factors, with a two-tailed significance cut-off level of p < 0.05. Tumor growth inhibition (TGI) was calculated as %TGI = [((VCD − VCB) − (VTD − VTB))/(VCD − VCB)] × 100, where VCD and VTD were the tumor volumes of the vehicle and treated groups on the calculated day, respectively, and VCB and VTB were the tumor volumes of the vehicle and treated groups at baseline (day 1). Kaplan–Meier survival analysis was performed, and group comparisons were done with the Gehan–Breslow–Wilcoxon test with Bonferroni correction method.

TAOK1 = molecular target: T1, TAOK1 (Homo sapiens, UniProt Q7L7X3); test: Kinase Hotspot radiolabel assay; format: biochemical; settings: read-out: % Residual Activity
T1 construct: purchased Reaction Biology Corporation (Kinase HotSpot)
T1 sequence (Q7L7X3 whole entry): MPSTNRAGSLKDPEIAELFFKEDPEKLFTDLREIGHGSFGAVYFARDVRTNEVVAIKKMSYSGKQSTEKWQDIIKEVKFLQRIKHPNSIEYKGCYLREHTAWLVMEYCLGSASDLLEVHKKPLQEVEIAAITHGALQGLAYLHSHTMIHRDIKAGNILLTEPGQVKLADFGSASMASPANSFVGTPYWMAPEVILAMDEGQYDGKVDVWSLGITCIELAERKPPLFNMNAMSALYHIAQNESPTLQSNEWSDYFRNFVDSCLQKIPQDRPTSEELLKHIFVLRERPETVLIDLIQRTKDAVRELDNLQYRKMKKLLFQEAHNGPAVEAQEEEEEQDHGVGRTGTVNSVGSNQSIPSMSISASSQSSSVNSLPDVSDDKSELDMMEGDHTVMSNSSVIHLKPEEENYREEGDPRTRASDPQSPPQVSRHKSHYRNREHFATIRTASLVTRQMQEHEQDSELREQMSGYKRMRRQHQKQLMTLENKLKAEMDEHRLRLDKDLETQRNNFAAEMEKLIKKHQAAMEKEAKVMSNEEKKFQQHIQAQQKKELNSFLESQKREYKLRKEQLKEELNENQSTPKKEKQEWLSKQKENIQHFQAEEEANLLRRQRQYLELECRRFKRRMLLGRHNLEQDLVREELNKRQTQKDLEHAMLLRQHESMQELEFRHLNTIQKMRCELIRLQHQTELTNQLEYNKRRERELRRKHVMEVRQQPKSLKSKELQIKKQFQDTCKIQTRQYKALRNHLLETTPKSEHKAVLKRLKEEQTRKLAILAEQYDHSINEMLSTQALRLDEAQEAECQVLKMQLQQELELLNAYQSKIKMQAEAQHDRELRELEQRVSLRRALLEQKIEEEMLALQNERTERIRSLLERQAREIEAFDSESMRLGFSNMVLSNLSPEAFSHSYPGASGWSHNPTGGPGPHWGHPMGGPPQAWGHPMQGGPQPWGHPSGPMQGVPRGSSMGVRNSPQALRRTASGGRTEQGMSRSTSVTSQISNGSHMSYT

Blood to plasma ratio = format: in vitro ADME; settings: mouse, in mice

In the case of Cc1cnc(N[C@H]2CC[C@H](N)CC2)nc1-c1cnc2ccc(-c3ccccc3)cn12 [CDDD11-8], the “day from which inhibition of tumor growth was statistically significant vs vehicle” value (MV4-11 tumor xenografts; 75 mg/kg PO QD) was 9 days, the “increase in the life span” value (MV4-11 tumor xenografts; 75 mg/kg PO QD 28 days) was 29% and the “MST (median survival time)” value (MV4-11 tumor xenografts; 75 mg/kg PO QD 28 days) was 49 days. The T/C% (MV4-11 tumor xenografts; 75 mg/kg PO QD, day 1) was 101%, the “% TGI” value (MV4-11 tumor xenografts; 75 mg/kg PO QD, day 3) was 92% and the T/C% (MV4-11 tumor xenografts; 75 mg/kg PO QD, day 3) was 75%. For the same compound, the “% TGI” value (MV4-11 tumor xenografts; 75 mg/kg PO QD, day 5) was 101%, the T/C% (MV4-11 tumor xenografts; 75 mg/kg PO QD, day 5) was 60% and the “% TGI” value (MV4-11 tumor xenografts; 75 mg/kg PO QD, day 7) was 95%. The T/C% (MV4-11 tumor xenografts; 75 mg/kg PO QD, day 7) was 50%, the “% TGI” value (MV4-11 tumor xenografts; 75 mg/kg PO QD, day 9) was 115% and the T/C% (MV4-11 tumor xenografts; 75 mg/kg PO QD, day 9) was 32%. For the same compound, the “% TGI” value (MV4-11 tumor xenografts; 75 mg/kg PO QD, day 11) was 121%, the T/C% (MV4-11 tumor xenografts; 75 mg/kg PO QD, day 11) was 22% and the “% TGI” value (MV4-11 tumor xenografts; 75 mg/kg PO QD, day 13) was 127%. For the same compound, the T/C% (MV4-11 tumor xenografts; 75 mg/kg PO QD, day 13) was 12%, the “% TGI” value (MV4-11 tumor xenografts; 75 mg/kg PO QD, day 15) was 129% and the T/C% (MV4-11 tumor xenografts; 75 mg/kg PO QD, day 15) was 8%. For the same compound, the “% TGI” value (MV4-11 tumor xenografts; 75 mg/kg PO QD, day 17) was 128%, the T/C% (MV4-11 tumor xenografts; 75 mg/kg PO QD, day 17) was 6% and the “% TGI” value (MV4-11 tumor xenografts; 75 mg/kg PO QD, day 19) was 125%. For the same compound, the T/C% (MV4-11 tumor xenografts; 75 mg/kg PO QD, day 19) was 5%, the “% TGI” value (MV4-11 tumor xenografts; 75 mg/kg PO QD, day 21) was 119% and the T/C% (MV4-11 tumor xenografts; 75 mg/kg PO QD, day 21) was 5%. The “% TGI” value (MV4-11 tumor xenografts; 75 mg/kg PO QD, day 23) was 112%, the T/C% (MV4-11 tumor xenografts; 75 mg/kg PO QD, day 23) was 5% and the “% TGI” value (MV4-11 tumor xenografts; 75 mg/kg PO QD, day 25) was 105%. The T/C% (MV4-11 tumor xenografts; 75 mg/kg PO QD, day 25) was 9%, the “% TGI” value (MV4-11 tumor xenografts; 75 mg/kg PO QD, day 27) was 96% and the T/C% (MV4-11 tumor xenografts; 75 mg/kg PO QD, day 27) was 15%. For the same compound, the “% TGI” value (MV4-11 tumor xenografts; 75 mg/kg PO QD, day 29) was 92%, the “mice with unmeasurable tumor size (zero tumor volume)” value (MV4-11 tumor xenografts; 75 mg/kg PO QD) was “one” and the “animals with tumor regression” value (MV4-11 tumor xenografts; 75 mg/kg PO QD, starting on day 9, n = 7) was “two out of seven animals”. For the same compound, the “day from which inhibition of tumor growth was statistically significant vs vehicle” value (MV4-11 tumor xenografts; 125 mg/kg PO QD) was 7 days, the “increase in the life span” value (MV4-11 tumor xenografts; 125 mg/kg PO QD 28 days) was 45% and the “MST (median survival time)” value (MV4-11 tumor xenografts; 125 mg/kg PO QD 28 days) was 55 days. For the same compound, the T/C% (MV4-11 tumor xenografts; 125 mg/kg PO QD, day 1) was 102%, the “% TGI” value (MV4-11 tumor xenografts; 125 mg/kg PO QD, day 3) was 127% and the T/C% (MV4-11 tumor xenografts; 125 mg/kg PO QD, day 3) was 66%. The “% TGI” value (MV4-11 tumor xenografts; 125 mg/kg PO QD, day 5) was 133%, the T/C% (MV4-11 tumor xenografts; 125 mg/kg PO QD, day 5) was 47% and the “% TGI” value (MV4-11 tumor xenografts; 125 mg/kg PO QD, day 7) was 122%. For the same compound, the T/C% (MV4-11 tumor xenografts; 125 mg/kg PO QD, day 7) was 36%, the “% TGI” value (MV4-11 tumor xenografts; 125 mg/kg PO QD, day 9) was 142% and the T/C% (MV4-11 tumor xenografts; 125 mg/kg PO QD, day 9) was 16%. The “% TGI” value (MV4-11 tumor xenografts; 125 mg/kg PO QD, day 11) was 137%, the T/C% (MV4-11 tumor xenografts; 125 mg/kg PO QD, day 11) was 12% and the “% TGI” value (MV4-11 tumor xenografts; 125 mg/kg PO QD, day 13) was 139%. For the same compound, the T/C% (MV4-11 tumor xenografts; 125 mg/kg PO QD, day 13) was 4%, the “% TGI” value (MV4-11 tumor xenografts; 125 mg/kg PO QD, day 15) was 136% and the T/C% (MV4-11 tumor xenografts; 125 mg/kg PO QD, day 15) was 3%. For the same compound, the “% TGI” value (MV4-11 tumor xenografts; 125 mg/kg PO QD, day 17) was 133%, the T/C% (MV4-11 tumor xenografts; 125 mg/kg PO QD, day 17) was 2% and the “% TGI” value (MV4-11 tumor xenografts; 125 mg/kg PO QD, day 19) was 130%. For the same compound, the T/C% (MV4-11 tumor xenografts; 125 mg/kg PO QD, day 19) was 2%, the “% TGI” value (MV4-11 tumor xenografts; 125 mg/kg PO QD, day 21) was 123% and the T/C% (MV4-11 tumor xenografts; 125 mg/kg PO QD, day 21) was 2%. The “% TGI” value (MV4-11 tumor xenografts; 125 mg/kg PO QD, day 23) was 117%, the T/C% (MV4-11 tumor xenografts; 125 mg/kg PO QD, day 23) was 1% and the “% TGI” value (MV4-11 tumor xenografts; 125 mg/kg PO QD, day 25) was 114%. The T/C% (MV4-11 tumor xenografts; 125 mg/kg PO QD, day 25) was 1%, the “% TGI” value (MV4-11 tumor xenografts; 125 mg/kg PO QD, day 27) was 112% and the T/C% (MV4-11 tumor xenografts; 125 mg/kg PO QD, day 27) was 1%. The “% TGI” value (MV4-11 tumor xenografts; 125 mg/kg PO QD, day 29) was 109%, the “animals with tumor regression still maintained” value (MV4-11 tumor xenografts; 125 mg/kg PO QD, day 29) was “six out of seven mice” and the “mice with unmeasurable tumor size (zero tumor volume)” value (MV4-11 tumor xenografts; 125 mg/kg PO QD) was “three”. The “animals with tumor regression” value (MV4-11 tumor xenografts; 125 mg/kg PO QD, from day 7, n = 7) was “all the mice”, the tolerability (MV4-11 tumor xenografts; 75 and 125 mg/kg PO QD 28 days, tumor-bearing mice) was “well tolerated” and the remaining activity at 1 µM (TAOK1) was 45.5%. It also gave a blood plasma ratio (Blood to plasma ratio) of 0.71.
